Experimental data published in PubChem BioAssay (NCI).
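48-hour exposure; five concentrations; linearly interpolated endpoints. At the GI50, growth is halved. TGI: concentration producing complete growth inhibition.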

What was measured:
Test in all cases: NCI tumour cell line growth inhibition, 48 h
[1] = tested on: SNB-19 CNS
[2] = tested on: UO-31 renal
[3] = tested on: SK-MEL-2 melanoma
[4] = tested on: COLO 205 colon
[5] = tested on: HCT-15 colon
[6] = tested on: HCT-116 colon
[7] = tested on: SW-620 colon
[8] = tested on: HT29 colon
[9] = tested on: OVCAR-8 ovarian
[10] = tested on: NCI-H460 lung
[11] = tested on: IGROV1 ovarian
[12] = tested on: SN12C renal
[13] = tested on: M14 melanoma
[14] = tested on: U251 CNS
[15] = tested on: HS 578T breast
[16] = tested on: A498 renal
[17] = tested on: K-562 leukemia
[18] = tested on: OVCAR-5 ovarian
[19] = tested on: MDA-MB-435
[20] = tested on: PC-3 prostate
[21] = tested on: T-47D breast
[22] = tested on: A549 NSCLC
[23] = tested on: SF-539 CNS
[24] = tested on: HOP-62 NSCLC
[25] = tested on: MCF7 breast
[26] = tested on: DU-145 prostate
[27] = tested on: UACC-62 melanoma
[28] = tested on: HL-60(TB) leukemia
[29] = tested on: OVCAR-4 ovarian
[30] = tested on: SK-OV-3 ovarian
[31] = tested on: OVCAR-3 ovarian
[32] = tested on: BT-549 breast
[33] = tested on: SK-MEL-5 melanoma
[34] = tested on: NCI/ADR-RES ovarian
[35] = tested on: 786-0 renal
[36] = tested on: RXF 393 renal
[37] = tested on: TK-10 renal
[38] = tested on: NCI-H522 lung
[39] = tested on: UACC-257 melanoma
[40] = tested on: CAKI-1 renal
[41] = tested on: MDA-MB-468 breast
[42] = tested on: CCRF-CEM leukemia
[43] = tested on: SR leukemia
[44] = tested on: HCC-2998 colon
[45] = tested on: HOP-92 NSCLC
[46] = tested on: NCI-H23 lung
[47] = tested on: MOLT-4 leukemia
[48] = tested on: LOX IMVI melanoma
[49] = tested on: MALME-3M melanoma
[50] = tested on: ACHN renal
[51] = tested on: MDA-MB-231 breast
[52] = tested on: KM12 colon
[53] = tested on: SF-268 CNS
[54] = tested on: RPMI-8226 leukemia
[55] = tested on: SK-MEL-28 melanoma
[56] = tested on: SF-295 CNS
[57] = tested on: NCI-H226 lung
[58] = tested on: SNB-75 CNS
[59] = tested on: EKVX NSCLC

## Cc1ccc(C2CC(c3ccc(NC(=O)Nc4ccccc4)cc3)=NN2c2ccc(S(N)(=O)=O)cc2)cc1 (stereo not drawn)
[1]
  GI50: 12.7 µM
  TGI: 25.4 µM
[2]
  GI50: 3.45 µM
  TGI: 14.6 µM
[3]
  GI50: 7.4 µM
  TGI: 21.5 µM
[4]
  GI50: 4.22 µM
  TGI: 18.6 µM
[5]
  GI50: 4.35 µM
  TGI: 16.9 µM
[6]
  GI50: 2.99 µM
  TGI: 13.5 µM
[7]
  GI50: 5.53 µM
  TGI: 22.3 µM
[8]
  GI50: 2.3 µM
  TGI: 7.45 µM
[9]
  GI50: 5.58 µM
  TGI: 21.4 µM
[10]
  GI50: 2.99 µM
  TGI: 12.5 µM
[11]
  GI50: 6.9 µM
  TGI: 20.3 µM
[12]
  GI50: 3.92 µM
  TGI: 14.5 µM
[13]
  GI50: 9.27 µM
  TGI: 27.2 µM
[14]
  GI50: 6.86 µM
  TGI: 20.3 µM
[15]
  GI50: 14.8 µM
  TGI: 39.1 µM
[16]
  GI50: 9.06 µM
  TGI: 21.3 µM
[17]
  GI50: 3.94 µM
  TGI: > 100 µM
[18]
  GI50: 12.4 µM
  TGI: 25.2 µM
[19]
  GI50: 6.83 µM
  TGI: 21.3 µM
[20]
  GI50: 2.6 µM
  TGI: 12.8 µM
[21]
  GI50: 3.37 µM
  TGI: 14.6 µM
[22]
  GI50: 3.36 µM
  TGI: 14.7 µM
[23]
  GI50: 12.7 µM
  TGI: 25.4 µM
[24]
  GI50: 13.3 µM
  TGI: 28.7 µM
[25]
  GI50: 3.56 µM
  TGI: 15.2 µM
[26]
  GI50: 10.2 µM
  TGI: 23 µM
[27]
  GI50: 10.4 µM
  TGI: 22.6 µM
[28]
  GI50: 2.13 µM
  TGI: 10.6 µM
[29]
  GI50: 4.5 µM
  TGI: 17.2 µM
[30]
  GI50: 12.9 µM
  TGI: 27.1 µM
[31]
  GI50: 3.97 µM
  TGI: 18.7 µM
[32]
  GI50: 7.84 µM
  TGI: 20.9 µM
[33]
  GI50: 15.5 µM
  TGI: 29.5 µM
[34]
  GI50: 2.83 µM
  TGI: 11 µM
[35]
  GI50: 3.86 µM
  TGI: 15.7 µM
[36]
  GI50: 13.1 µM
  TGI: 27.6 µM
[37]
  GI50: 9.93 µM
  TGI: 22.2 µM
[38]
  GI50: 2.84 µM
  TGI: 15 µM
[39]
  GI50: 8.48 µM
  TGI: 22 µM
[40]
  GI50: 10.4 µM
  TGI: 22.5 µM
[41]
  GI50: 10.2 µM
  TGI: 24 µM
[42]
  GI50: 3.98 µM
  TGI: 22 µM
[43]
  GI50: 4.28 µM
  TGI: 26.7 µM
[44]
  GI50: 2.65 µM
  TGI: 8.77 µM
[45]
  GI50: 3.21 µM
  TGI: 14.8 µM
[46]
  GI50: 3.57 µM
  TGI: 14.3 µM
[47]
  GI50: 2.98 µM
  TGI: 14.1 µM
[48]
  GI50: 1.76 µM
  TGI: 3.23 µM
[49]
  GI50: 7.88 µM
  TGI: 20.8 µM
[50]
  GI50: 4.16 µM
  TGI: 14.9 µM
[51]
  GI50: 12.3 µM
  TGI: 25.3 µM
[52]
  GI50: 5.57 µM
  TGI: 22.1 µM
[53]
  GI50: 10.2 µM
  TGI: 24 µM
[54]
  GI50: 3.8 µM
  TGI: 35.9 µM
[55]
  GI50: 10.5 µM
  TGI: 22.5 µM
[56]
  GI50: 5.34 µM
  TGI: 18.8 µM
[57]
  GI50: 10.9 µM
  TGI: 24.9 µM
[58]
  GI50: 10.7 µM
  TGI: 24 µM
[59]
  GI50: 4.04 µM
  TGI: 16.4 µM
